Assay results: patent US6410558B1, “Fungicides for the control of take-all disease of plants” (Monsanto Technology LLC, priority 1991, dated 2002)

What was measured:
Ggt = test: In vivo Assay: control of Ggt on wheat grown in pots of Ggt-infested soil, root disease rating; parameters: species or system Gaeumannomyces graminis var. tritici; conditions: Gaeumannomyces graminis, 672 h; 0.5 mg active ingredient per pot; 'Bergen' or 'Anza' wheat in Ggt-infested soil; after four weeks; vs untreated control; read-out: In vivo, percent disease control
Experimental: Compounds are tested for control of Ggt on ‘Bergen’ or ‘Anza’ varieties of wheat grown in 3-inch square pots containing soil infested with Ggt. The infestation is accomplished by mixing the soil with an inoculum prepared by growing Ggt on ¼ strength potato dextrose agar (4.875 g potato dextrose agar, 5.0 g Bacto agar, 500 mL distilled, deionized water) in plates and using plugs from the plates to infest sterile oats (400 cc whole oats, 350 mL deionized water, autoclaved). After a one-month incubation period at room temperature, the oats are dried and mixed with the soil at 4% v/v. Four wheat seeds are placed on top of the soil in each pot. The test compounds are prepared as an 1:9 acetone/water v/v solution containing 0.18% Tween® 20 to provide a treatment rate of 0.5 mg active ingredient per pot, treated with 3 mL test solution per pot. Five pots are used for each treatment level and the controls, which are untreated, inoculated and non-inoculated pots. After one hour drying time, the seeds are covered with more of the appropriate soil and a layer of vermiculite. The pots are placed in a growth chamber and watered each day. After four weeks, each pot is evaluated for evidence of disease by examination of the seminal roots of each plant under a dissecting microscope. A 0 to 5 rating scale having the following meanings is used:
0=no runner hyphae or lesions present
1=runner hyphae and a few small lesions present on <10% of root system
2=runner hyphae and small lesions present on 10-25% of root system
3=runner hyphae and lesions present on 25-50% of root system
4=runner hyphae and many, large, coalescing lesions on >50% of root system
5=root system and culm completely inundated with lesions and runner hyphae
From each set of five replicates a high and low score is eliminated and a replicate mean is calculated by the average of the remaining three scores. This mean score is then compared to the untreated control score and a percent disease control is calculated.

[1] = test system: Gaeumannomyces graminis var. tritici (Ggt); test: In vitro Assay: mycelial growth of Ggt on minimal media agar plates containing test compound; type: cell-based; conditions: Gaeumannomyces graminis, dark, 19-20° C., 4 to 5 days, diameter of mycelial growth; for inhibition at 0.1 ppm: 0.1 ppm in minimal media agar, read-out: In vitro (ppm) 0.1, Percent Inhibition; for inhibition at 1 ppm: 1 ppm in minimal media agar, read-out: In vitro (ppm) 1, Percent Inhibition; for inhibition at 10 ppm: 10 ppm in minimal media agar, read-out: In vitro (ppm) 10, Percent Inhibition
Summary of the method: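 Ggt mycelial diameter read after 4 to 5 days in darkness at 19-20° C, from three 4-mm plugs placed on Czapek Dox minimal agar containing test compound delivered in acetone. Inhibition expressed as percent versus untreated plates, plug size (4 mm) subtracted from both.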

| SMILES | pest or weed control at 0.5 mg/pot (Ggt) | inhibition at 0.1 ppm [1] | inhibition at 1 ppm [1] | inhibition at 10 ppm [1] |
| --- | --- | --- | --- | --- |
| C[Si](C)(C)c1cccc(Cl)c1C(=O)NCCCl [Example 29, 2-Chloro-N-(2-chloroethyl)-6-(trimethylsilyl)benzamide] | 97% | 100% | 100% | 100% |
| C[Si](C)(C)c1cccc(Cl)c1C(=O)NCc1ccco1 [Example 32, 2-Chloro-N-(2-furylmethyl)-6-(trimethylsilyl)benzamide] | 85% | 75% | 100% | 100% |
| Cc1ccccc1NC(=O)c1c(Cl)cccc1[Si](C)(C)C [Example 33, 2-Chloro-N-(2-methylphenyl)-6-(trimethylsilyl)benzamide] | 12% | < 0% | 44% | 100% |
| C[Si](C)(C)c1cccc(Cl)c1C(=O)NC1CC1 [Example 34, 2-Chloro-N-cyclopropyl-6-(trimethylsilyl)benzamide] | 100% | 97% | 100% | 100% |
| CCN(Cc1ccccc1)C(=O)c1c(Cl)cccc1[Si](C)(C)C [Example 35, 2-Chloro-N-ethyl-N-(phenylmethyl)-6-(trimethylsilyl)benzamide] | 46% | 3% | 7% | 93% |
| CCCN(CCC)C(=O)c1c(Cl)cccc1[Si](C)(C)C [Example 36, 2-Chloro-N,N-dipropyl-6-(trimethylsilyl)benzamide] | 88% | 26% | 69% | 100% |
| CCN(CC)C(=O)c1c(Br)ccc(F)c1[Si](C)(C)C [Example 37, 6-Bromo-N,N-diethyl-3-fluoro-2-(trimethylsilyl)benzamide] | 83% | 17% | 63% | 87% |
| CCN(CC)C(=O)c1c(Cl)ccc(F)c1[Si](C)(C)C [Example 38, 6-Chloro-N,N-diethyl-3-fluoro-2-(trimethylsilyl)benzamide] | 95% | 53% | 79% | 100% |
| CCN(CC)C(=O)c1c(Cl)cccc1[Si](C)(C)C [Example 39, 2-Chloro-N,N-diethyl-6-(trimethylsilyl)benzamide] | 99% | 49% | 82% | 92% |
| CCNC(=O)c1c(Cl)cccc1[Si](C)(C)C [Example 45, 2-Chloro-N-ethyl-6-(trimethylsilyl)benzamide] | 97% | 100% | 100% | 100% |
| CCNC(=O)c1c(C)cccc1[Si](C)(C)C [Example 48, N-Ethyl-2-methyl-6-(trimethylsilyl)benzamide] | 97% | 74% | 100% | 100% |
| CCNC(=O)c1ccccc1[Si](C)(C)C [Example 49, N-Ethyl-2-(trimethylsilyl)benzamide] | 97% | 100% | 100% | 100% |
| CCN(CC)C(=S)c1c(C)cccc1[Si](C)(C)C [Example 51, N,N-Diethyl-2-methyl-6-(trimethylsilyl)thiobenzamide] | 77% | < 0% | 19% | 100% |
| CCN(CC)C(=O)c1c(C(F)F)ccc(F)c1[Si](C)(C)C [Example 52, N,N-Diethyl-6-(difluoromethyl)-3-fluoro-2-(trimethylsilyl)benzamide] | 96% | 53% | 81% | 98% |
